Data from patent publication US7195788B2, “Pesticidal compositions from prunus” (Premier Botanicals, Ltd., priority 2001, dated 2007).
Values joined by “and” are separate entries in the source; they are usually repeats but may differ in a detail not shown here. Equal entries are not always repeated.

Key:
Cytospora chrysosperma = assay: In vitro mycelia growth of Cytospora chrysosperma on potato dextrose agar containing the test material; assay type: cell-based; conditions: 23° C.
Method: The effectiveness of Prunus compositions was compared to the effectiveness of synthetic benzaldehyde in stopping or restricting the growth of the Cytospora fungus on potato dextrose agar. The volatile compounds of a Prunus virginiana hydrodistillate were concentrated by counter-flow flash evaporation (i.e. collected from vessel 122 as shown in FIG. 2) to provide a concentrated extract that was further processed by distillation to remove hydrocyanic acid. The resulting extract was analyzed and found to contain 1.2% trans-2-hexenal, 98.5% benzaldehyde, and traces of other compounds originally in the hydrodistillate. This extract was reconstituted in distilled water to provide a solution containing approximately 10,000 ppm of Prunus volatiles. This stock solution was used to prepare a series of agar solutions containing between 0 and 10,000 ppm Prunus volatiles. The Prunus material was blended into the agar after autoclaving and prior to pouring the agar into Petri plates. […] All plates were inoculated with a 5-mm potato dextrose agar plug from a two-week-old culture of C. chrysosperma.

Uncinula necator = assay: Powdery mildew development on 'Pinot Noir' grape leaves after spray treatment; assay type: in vivo; conditions: for Powdery mildew disease rating on grape leaves, per repetition: scale 1 = no symptoms, 5 = 100% infected, Prunus 1 crude, Prunus 2 and SB at 1000 ppm, repetitions 1-3
Method: Prunus compositions (including crude Prunus virginiana hydrodistillate, collected in vessel 112 of FIG. 2, having the analysis of the first entry of Table 1) were tested on grape plants (Pinot Noir) infected with powdery mildew. The experiment was set up in a complete randomized block design with three repetition, four treatments each, with three observations per treatment. Treatments were as follows: Prunus 1: crude hydrodistillate from Prunus biomass, Prunus 2: benzaldehyde separated from the hydrodistillate at 1,000 ppm, SB-synthetic benzaldehyde, and control-distilled water.
Treatments were applied to infected leaves in early August and in early September. Three adjacent leaves on a vine were sprayed with each treatment and replicated on three different vines (plants). The solutions were applied with a mist sprayer until run off. The first disease reading was obtained in early September, one month after the first treatment application. The second disease reading was obtained in early October, about one month after the second treatment application.
Disease ratings were based on a scale of 1 to 5, with 1 indicating no symptoms and 5 indicating 100-percent infected. The results are summarized in Table 5, in which each datum is a mean value of the three observations for each treatment made on the two dates disease readings were obtained. […] The crude hydrodistillate composition contained all of the volatile chemicals identified above in Example 1. The increased fungicidal action of the crude hydrodistillate indicated synergistic action of the Prunus volatiles relative to purified or synthetic benzaldehyde.

Sphaerotheca pannosa = assay: Powdery mildew development on rose leaves after spray treatment; assay type: in vivo; conditions: for Powdery mildew disease rating on rose leaves, per repetition: scale 1 = no symptoms, 5 = 100% infection, Prunus 1 crude, Prunus 2 and SB at 1000 ppm, repetitions 1-3
Method: Prunus compositions (including crude Prunus virginiana hydrodistillate, collected in vessel 112 of FIG. 2, having the SPME determined composition of the first entry in Table 1) were tested on diseased plants and were evaluated as a fungicide for controlling Rose powdery mildew. The experiment was set up in a complete randomized block design with three repetitions and four treatments. Treatments were as follows: Prunus 1: crude hydrodistillate from Prunus biomass, Prunus 2: benzaldehyde separated from the crude hydrodistillate at 1,000 ppm, SB-synthetic benzaldehyde, and control-distilled water.
Treatments were applied to infected leaves twice (one week apart) in late July, and once in late August. All leaves were covered with mildew mycelia at the time of the first treatment. One compound leaf was treated with each treatment. Leaves from different stems were treated for each of the three repetition. The treatments were applied with a mist sprayer until run off. Disease development was rated on a scale of 1 to 5, where 1 indicated no symptoms and 5 indicated 100-percent infected. The first disease rating was obtained at the time of the late August treatment, followed by a second disease rating in early September. […] The crude distillate from the Prunus biomass was effective in eliminating or inhibiting the growth of the fungus on the rose leaves. […] The crude hydrodistillate containing all of the volatile compounds identified in Example 1 appeared to act synergistically, relative to purified or synthetic benzaldehyde, to control the rose mildew fungus.

O=Cc1ccccc1 [SB, benzaldehyde]
Mycelial Growth (radial) (Cytospora chrysosperma; 25 ppm in PDA, 1 day after treatment): 0.0 cm | Mycelial Growth (radial) (Cytospora chrysosperma; 25 ppm in PDA, 2 days after treatment): 1.2 cm | Mycelial Growth (radial) (Cytospora chrysosperma; 25 ppm in PDA, 3 days after treatment): 2.8 cm | Mycelial Growth (radial) (Cytospora chrysosperma; 25 ppm in PDA, 4 days after treatment): 3.8 cm | Mycelial Growth (radial) (Cytospora chrysosperma; 25 ppm in PDA, 5 days after treatment): 4.1 cm | Mycelial Growth (radial) (Cytospora chrysosperma; 25 ppm in PDA, 6 days after treatment): 4.1 cm | Mycelial Growth (radial) (Cytospora chrysosperma; 25 ppm in PDA, 7 days after treatment): 4.1 cm | Mycelial Growth (radial) (Cytospora chrysosperma; 25 ppm in PDA, 14 days after treatment): 4.1 cm | Mycelial Growth (radial) (Cytospora chrysosperma; 50 ppm in PDA, 1 day after treatment): 0.0 cm | Mycelial Growth (radial) (Cytospora chrysosperma; 50 ppm in PDA, 2 days after treatment): 1.1 cm | Mycelial Growth (radial) (Cytospora chrysosperma; 50 ppm in PDA, 3 days after treatment): 2.6 cm | Mycelial Growth (radial) (Cytospora chrysosperma; 50 ppm in PDA, 4 days after treatment): 3.1 cm | Mycelial Growth (radial) (Cytospora chrysosperma; 50 ppm in PDA, 5 days after treatment): 4.0 cm | Mycelial Growth (radial) (Cytospora chrysosperma; 50 ppm in PDA, 6 days after treatment): 4.1 cm | Mycelial Growth (radial) (Cytospora chrysosperma; 50 ppm in PDA, 7 days after treatment): 4.1 cm | Mycelial Growth (radial) (Cytospora chrysosperma; 50 ppm in PDA, 14 days after treatment): 4.1 cm | Mycelial Growth (radial) (Cytospora chrysosperma; 100 ppm in PDA, 1 day after treatment): 0.0 cm | Mycelial Growth (radial) (Cytospora chrysosperma; 100 ppm in PDA, 2 days after treatment): 1.2 cm | Mycelial Growth (radial) (Cytospora chrysosperma; 100 ppm in PDA, 3 days after treatment): 2.7 cm | Mycelial Growth (radial) (Cytospora chrysosperma; 100 ppm in PDA, 4 days after treatment): 3.5 cm | Mycelial Growth (radial) (Cytospora chrysosperma; 100 ppm in PDA, 5 days after treatment): 4.1 cm | Mycelial Growth (radial) (Cytospora chrysosperma; 100 ppm in PDA, 6 days after treatment): 4.1 cm | Mycelial Growth (radial) (Cytospora chrysosperma; 100 ppm in PDA, 7 days after treatment): 4.1 cm | Mycelial Growth (radial) (Cytospora chrysosperma; 100 ppm in PDA, 14 days after treatment): 4.1 cm | Mycelial Growth (radial) (Cytospora chrysosperma; 500 ppm in PDA, 1 day after treatment): 0.0 cm | Mycelial Growth (radial) (Cytospora chrysosperma; 500 ppm in PDA, 2 days after treatment): 0.9 cm | Mycelial Growth (radial) (Cytospora chrysosperma; 500 ppm in PDA, 3 days after treatment): 2.3 cm | Mycelial Growth (radial) (Cytospora chrysosperma; 500 ppm in PDA, 4 days after treatment): 3.1 cm | Mycelial Growth (radial) (Cytospora chrysosperma; 500 ppm in PDA, 5 days after treatment): 4.0 cm | Mycelial Growth (radial) (Cytospora chrysosperma; 500 ppm in PDA, 6 days after treatment): 4.0 cm | Mycelial Growth (radial) (Cytospora chrysosperma; 500 ppm in PDA, 7 days after treatment): 4.1 cm | Mycelial Growth (radial) (Cytospora chrysosperma; 500 ppm in PDA, 14 days after treatment): 4.1 cm | Mycelial Growth (radial) (Cytospora chrysosperma; 1,000 ppm in PDA, 1 day after treatment): 0.0 cm | Mycelial Growth (radial) (Cytospora chrysosperma; 1,000 ppm in PDA, 2 days after treatment): 0.7 cm | Mycelial Growth (radial) (Cytospora chrysosperma; 1,000 ppm in PDA, 3 days after treatment): 1.6 cm | Mycelial Growth (radial) (Cytospora chrysosperma; 1,000 ppm in PDA, 4 days after treatment): 2.2 cm | Mycelial Growth (radial) (Cytospora chrysosperma; 1,000 ppm in PDA, 5 days after treatment): 3.3 cm | Mycelial Growth (radial) (Cytospora chrysosperma; 1,000 ppm in PDA, 6 days after treatment): 4.0 cm | Mycelial Growth (radial) (Cytospora chrysosperma; 1,000 ppm in PDA, 7 days after treatment): 4.1 cm | Mycelial Growth (radial) (Cytospora chrysosperma; 1,000 ppm in PDA, 14 days after treatment): 4.1 cm | Mycelial Growth (radial) (Cytospora chrysosperma; 5,000 ppm in PDA, 1 day after treatment): 0.0 cm | Mycelial Growth (radial) (Cytospora chrysosperma; 5,000 ppm in PDA, 2 days after treatment): 0.0 cm | Mycelial Growth (radial) (Cytospora chrysosperma; 5,000 ppm in PDA, 3 days after treatment): 0.0 cm | Mycelial Growth (radial) (Cytospora chrysosperma; 5,000 ppm in PDA, 4 days after treatment): 0.0 cm | Mycelial Growth (radial) (Cytospora chrysosperma; 5,000 ppm in PDA, 5 days after treatment): 0.0 cm | Mycelial Growth (radial) (Cytospora chrysosperma; 5,000 ppm in PDA, 6 days after treatment): 0.1 cm | Mycelial Growth (radial) (Cytospora chrysosperma; 5,000 ppm in PDA, 7 days after treatment): 0.3 cm | Mycelial Growth (radial) (Cytospora chrysosperma; 5,000 ppm in PDA, 14 days after treatment): 0.0 cm | Mycelial Growth (radial) (Cytospora chrysosperma; 10,000 ppm in PDA, 1 day after treatment): 0.0 cm | Mycelial Growth (radial) (Cytospora chrysosperma; 10,000 ppm in PDA, 2 days after treatment): 0.0 cm | Mycelial Growth (radial) (Cytospora chrysosperma; 10,000 ppm in PDA, 3 days after treatment): 0.0 cm | Mycelial Growth (radial) (Cytospora chrysosperma; 10,000 ppm in PDA, 4 days after treatment): 0.0 cm | Mycelial Growth (radial) (Cytospora chrysosperma; 10,000 ppm in PDA, 5 days after treatment): 0.0 cm | Mycelial Growth (radial) (Cytospora chrysosperma; 10,000 ppm in PDA, 6 days after treatment): 0.0 cm | Mycelial Growth (radial) (Cytospora chrysosperma; 10,000 ppm in PDA, 7 days after treatment): 0.0 cm | Mycelial Growth (radial) (Cytospora chrysosperma; 10,000 ppm in PDA, 14 days after treatment): 0.0 cm | Powdery mildew disease rating on grape leaves, per repetition (Uncinula necator; reading 9/7, one month after first spray): 2 and 1 | Powdery mildew disease rating on grape leaves, per repetition (Uncinula necator; reading 10/5, about one month after second spray): 3 | Control of grape powdery mildew (in words) (Uncinula necator; spray on infected Pinot Noir leaves, up to second reading): reduced the spread of the mildew fungus, but did not control it | Powdery mildew disease rating on rose leaves, per repetition (Sphaerotheca pannosa; reading 8/22): 3 and 2 | Powdery mildew disease rating on rose leaves, per repetition (Sphaerotheca pannosa; reading 9/4): 3 and 2 | Control of rose powdery mildew (in words) (Sphaerotheca pannosa; spray on infected rose leaves): less effective in removing the fungus from the infected rose leaves
